Data from US7947275B2 (Signe Biopharma, Inc., priority 2000, dated 2011).
Values joined by “and” are separate entries in the source; they are usually repeats but may differ in a detail not shown here. Equal entries are not always repeated. Structures can show the parent of a compound that is named as a salt. Where two headings read alike, the source gives them in different places.

Assays:
LNCaP cells = experiment: Cell growth assay, LNCaP human prostatic carcinoma cells; type: cell-based; conditions: for reversal of the inhibition caused by CDE-horse serum: D-MEM/F-12 with CDE-horse serum, 10 nM steroid
Experimental: Specific modifications of the customary cell growth assays were required for assays done under iron-restricted conditions. […] Serum-free components were added to “low-Fe” D-MEM/F-12 at double the concentrations needed (2X) or to “standard” D-MEM/F-12 at (2X) as the experiments dictated. Each assay dish received 1.0 mL of this solution. Next, the cells to be used in the assays were washed three times in either “low-Fe” medium or “standard” medium depending upon the experimental protocol.

[1] = molecular target: T1, CA-PS-Pool I (predominantly CBG) (Equus caballus, UniProt F7DRS2); experiment: Scatchard analysis of labeled steroid binding to CA-PS-pool I; set-up: species or system horse; conditions: 3H-labeled steroid, 34° C.; for Kd: read-out: CA-PS-Pool I Kd
T1 sequence (F7DRS2 23-406): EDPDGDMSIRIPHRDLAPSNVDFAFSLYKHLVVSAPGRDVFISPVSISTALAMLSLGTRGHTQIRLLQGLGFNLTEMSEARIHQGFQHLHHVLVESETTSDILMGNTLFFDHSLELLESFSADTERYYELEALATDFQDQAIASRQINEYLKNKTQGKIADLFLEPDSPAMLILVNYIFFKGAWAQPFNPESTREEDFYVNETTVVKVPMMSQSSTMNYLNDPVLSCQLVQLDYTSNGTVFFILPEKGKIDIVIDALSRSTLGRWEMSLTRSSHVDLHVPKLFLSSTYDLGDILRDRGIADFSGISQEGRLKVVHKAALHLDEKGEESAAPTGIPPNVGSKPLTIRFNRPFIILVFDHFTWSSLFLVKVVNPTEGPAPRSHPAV

CA-PS-Pool II = experiment: Scatchard analysis of labeled steroid binding to CA-PS-pool II; set-up: species or system horse; conditions: 3H-labeled steroid, 34° C.
[2] = system: CA-PS-Pool II from rat serum; experiment: Scatchard analysis of labeled steroid binding to the SHBG-like pools from rat serum; conditions: 3H-labeled steroid
[3] = system: androgen receptors of MTW9/PL2 cells
[4] = read-out: Kd of specific binding of ^3H-DHT, Scatchard analysis
[5] = read-out: Kd of specific binding of ^3H-DHT
human SHBG = human SHBG (Homo sapiens, UniProt P04278); conditions: 37° C.; cited from earlier work
H301 cells = experiment: Cell growth assay, H301 kidney tumor cells; conditions: 50% (v/v) CDE-horse serum
Text: (§1) General Cell Culture—Growth Assay Methods.
(§2) General Cell Culture—Harvest and Counting Cells.
(§3) General Cell Culture—Quantification of Growth.

T47D cells = experiment: Cell growth assay, T47D human breast cancer cells; conditions: for growth effect of steroid hormone, result in words: 50% (v/v) CDE horse serum, 14 days
Text: as §1, §2, §3

MTW9/PL2 cells = experiment: Cell growth assay, MTW9/PL2 rat mammary tumor cells; conditions: for concentration causing significant (p<0.05) growth / concentration for optimum growth: 50% (v/v) CDE-horse serum
Text: as §1, §2, §3

GH4C1 cells = experiment: Cell growth assay, GH4C1 rat pituitary tumor cells; conditions: 50% CDE-horse serum
Text: as §1, §2, §3

PC3 cells = experiment: Cell growth assay, PC3 human prostate cancer cells; conditions: CAPM, 10 μM Fe (III)
Text: as §1, §2, §3

MCF-7A cells = experiment: Cell growth assay, MCF-7A human breast cancer cells; conditions: DDM-2MF with 10 μg/mL apotransferrin in place of deferoxamine
Text: as §1, §2, §3

DU145 cells = experiment: Cell growth assay, DU145 human prostate cancer cells; conditions: CAPM, 10 μM Fe (III)
Text: as §1, §2, §3

ALVA-41 cells = experiment: Cell growth assay, ALVA-41 human prostate cancer cells; conditions: results not shown
[6] = molecular target: T2, estrogen receptors of MTW9/PL2 cells (Rattus norvegicus, UniProt P06211); experiment: ^3H-E2 binding to MTW9/PL2 cells; conditions: 5 nM ^3H-E2, 37° C., 100-fold molar excess of unlabeled steroid
T2 construct: endogenous in cells; host or cells: MTW9/PL2 rat mammary tumor cells (whole cells; some values from extracts of the parental MTW9/PL line)

[7] = molecular target: progesterone receptors in MTW9/PL2 cells (Rattus norvegicus, UniProt Q63449); experiment: ^3H-progesterone binding to MTW9/PL2 cells
[8] = system: progesterone receptors in MTW9/PL2 cells; experiment: ^3H-progesterone binding to MTW9/PL2 cells; set-up: species or system rat; conditions: 37° C.
[9] = system: MCF-7A, MCF-7K, T47D and ZR-75-1 cells; experiment: Growth factors as substitutes for E2 with human breast cancer cells in CDE-horse serum; type: cell-based; conditions: EGF, TGFα growth saturating; IGF-I 1.0 μg/mL; IGF-II up to 500 ng/mL; insulin 10 ng/mL to 10 μg/mL
[10] = system: MCF-7A, T47D, ZR-75-1, LNCaP and GH4C1 cells; experiment: TGFβ1 at 50 ng/mL ± E2 with other ER^+ cell lines; type: cell-based
MCF-7K cells = experiment: Cell growth assay, MCF-7K human breast cancer cells
Text: as §1, §2, §3

T2 sequence (P06211 whole entry): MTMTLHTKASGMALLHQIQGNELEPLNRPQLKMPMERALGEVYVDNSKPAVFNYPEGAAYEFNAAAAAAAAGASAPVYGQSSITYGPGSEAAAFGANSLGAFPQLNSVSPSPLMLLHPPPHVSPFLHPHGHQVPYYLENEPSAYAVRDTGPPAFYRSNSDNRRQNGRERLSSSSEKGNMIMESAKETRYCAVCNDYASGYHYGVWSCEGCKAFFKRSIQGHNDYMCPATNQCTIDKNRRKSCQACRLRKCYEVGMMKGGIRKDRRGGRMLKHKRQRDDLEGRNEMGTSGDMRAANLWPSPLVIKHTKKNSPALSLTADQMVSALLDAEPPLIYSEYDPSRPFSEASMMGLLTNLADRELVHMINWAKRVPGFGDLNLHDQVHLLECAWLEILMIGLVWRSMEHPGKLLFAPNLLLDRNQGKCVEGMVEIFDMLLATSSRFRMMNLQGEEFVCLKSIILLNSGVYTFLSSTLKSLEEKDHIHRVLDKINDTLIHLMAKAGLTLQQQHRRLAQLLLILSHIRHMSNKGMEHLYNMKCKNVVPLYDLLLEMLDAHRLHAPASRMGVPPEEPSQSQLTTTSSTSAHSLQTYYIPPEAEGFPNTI
human SHBG, sequence (P04278 30-402): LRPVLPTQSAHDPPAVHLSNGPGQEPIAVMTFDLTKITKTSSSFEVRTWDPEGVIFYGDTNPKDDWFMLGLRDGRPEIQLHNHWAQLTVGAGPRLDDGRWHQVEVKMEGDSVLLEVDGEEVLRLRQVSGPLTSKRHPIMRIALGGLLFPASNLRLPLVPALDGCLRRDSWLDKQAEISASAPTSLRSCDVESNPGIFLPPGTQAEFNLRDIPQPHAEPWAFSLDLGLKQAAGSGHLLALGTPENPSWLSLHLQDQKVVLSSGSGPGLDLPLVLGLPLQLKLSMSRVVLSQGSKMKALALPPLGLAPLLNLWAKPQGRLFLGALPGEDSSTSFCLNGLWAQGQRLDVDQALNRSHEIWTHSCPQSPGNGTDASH
progesterone receptors in MTW9/PL2 cells (Rattus norvegicus, UniProt Q63449), sequence (Q63449 669-923 limits assumed): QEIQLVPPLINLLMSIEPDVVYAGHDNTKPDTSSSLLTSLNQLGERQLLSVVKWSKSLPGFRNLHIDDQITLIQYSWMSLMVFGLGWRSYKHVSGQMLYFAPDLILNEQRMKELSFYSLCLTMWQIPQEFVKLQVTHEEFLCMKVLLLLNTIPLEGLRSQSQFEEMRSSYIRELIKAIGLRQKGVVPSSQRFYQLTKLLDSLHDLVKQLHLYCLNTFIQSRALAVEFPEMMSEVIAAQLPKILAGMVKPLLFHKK

Question: With `CC/C(=C(/CC)c1ccc(O)cc1)c1ccc(O)cc1` [DES, Diethylstilbestrol] as the molecule, how does the “reversal of the inhibition caused by CDE-horse serum” value (LNCaP cells) read?
Answer: entirely ineffective

Question: For `C[C@]12CCC(=O)C[C@@H]1CC[C@@H]1[C@@H]2CC[C@]2(C)[C@@H](O)CC[C@@H]12` [DHT, Dihydrotestosterone], which “concentration causing significant (p<0.05) growth” value (LNCaP cells; D-MEM/F-12 with 50% (v/v) CDE horse serum) is on record?
Answer: 1 pM

Question: What about the “reversal of the inhibition caused by CDE-horse serum” value (LNCaP cells) of the same molecule?
Answer: effectively reversed the inhibition

Question: And the “androgenic effect (difference between presence and absence of DHT)” value (LNCaP cells; serum-free CAPM ± 10 nM DHT)?
Answer: less than one

Question: And the “CA-PS-Pool I Ka” value [1]?
Answer: 164000 M⁻¹

Question: What about the Kd [1] of the same molecule?
Answer: 6050 nM

Question: And the “CA-PS-Pool II Ka” value (CA-PS-Pool II)?
Answer: 6.99e+07 M⁻¹

Question: What about the Kd (CA-PS-Pool II) of the same molecule?
Answer: 14.3 nM

Question: What about the “CA-PS-Pool II Ka” value (CA-PS-Pool II; listed as 3H-DHT) of the same molecule?
Answer: 5.88e+07 M⁻¹

Question: What about the “CA-PS-Pool II Ka” value [2] of the same molecule?
Answer: 4.1e+07 M⁻¹

Question: And the Kd [2]?
Answer: 24 nM

Question: And the “specific saturable binding sites for androgens” value [3]?
Answer: did not reveal saturable specific binding sites

Question: What about the Kd [4] of the same molecule?
Answer: 1 to 5 nM

Question: What about the Kd [5] of the same molecule?
Answer: 15 to 40 nM

Question: What about the “Ka of purified human SHBG” value (human SHBG) of the same molecule?
Answer: 9.9e+08 M⁻¹

Question: And the “growth effect of steroid hormone, result in words” value (“growth effect of steroid hormone” below) (H301 cells)?
Answer: inactive

Question: What about the “growth effect of steroid hormone” value (T47D cells) of the same molecule?
Answer: promoted growth but only at supraphysiological concentrations

Question: And the “concentration causing significant (p<0.05) growth” value (MTW9/PL2 cells)?
Answer: ≥ 10 nM

Question: What does the source list for `C[C@]12CC[C@@H]3c4ccc(O)cc4CC[C@H]3[C@@H]1CCC2=O` [E1, Estrone]?
Answer: concentration required to achieve significant (p<0.05) growth (H301 cells): 100 pM; concentration required for optimum growth (GH4C1 cells): 10 nM; lowest concentration that gave significant (p<0.05) growth (GH4C1 cells): 1 pM; concentration for optimum growth (MTW9/PL2 cells): 1 nM

Question: With `C[C@]12CC[C@@H]3c4ccc(O)cc4CC[C@H]3[C@@H]1C[C@@H](O)[C@@H]2O` [E3, Estriol] as the molecule, how does the “growth effect of steroid hormone” value (GH4C1 cells) read?
Answer: substantially less effective

Question: What about the “concentration for optimum growth” value (MTW9/PL2 cells) of the same molecule?
Answer: 10 nM

Question: Which IC50 (LNCaP cells; CAPM with apotransferrin (500 nM) substituted for deferoxamine, 12-day assay, read-out: EI50 (the source's name)) does the source give for `[Fe+3]` [Fe (III)] here?
Answer: 5000 nM

Question: And the “concentration arresting growth to seed density levels” value (LNCaP cells; CAPM with apotransferrin (500 nM) substituted for deferoxamine, 12-day assay, second experiment in CAPM)?
Answer: 10 µM and 8 to 10 µM

Question: And the “concentration giving complete inhibition” value (T47D cells; DDM-2MF with 10 μg/mL apotransferrin instead of deferoxamine, 10 days, ± E2)?
Answer: 2 µM

Question: And the IC50 (T47D cells; read-out: EI50, DDM-2MF with 10 μg/mL apotransferrin instead of deferoxamine, 10 days)?
Answer: 1000 nM

Question: What about the “reduction in cell number” value (PC3 cells) of the same molecule?
Answer: 10%

Question: What about the concentration completely inhibitory (MCF-7A cells; ± E2, 10 days) of the same molecule?
Answer: 10 µM

Question: What about the IC50 (MCF-7A cells; read-out: EI50, 10 days) of the same molecule?
Answer: 5000 to 7000 nM

Question: And the “reduction in cell number” value (DU145 cells)?
Answer: 30%

Question: And the “iron sensitivity of growth” value (ALVA-41 cells)?
Answer: not iron sensitive

Question: For `C[C@]12CC[C@H]3[C@@H](CCC4=CC(=O)CC[C@@]43C)[C@@H]1CC[C@@H]2O` [T, Testosterone], which “reduction of ^3H-E2 total binding by unlabeled steroid” value [6] is on record?
Answer: did not displace ^3H-E2 total binding significantly

Question: What about the “growth effect of steroid hormone” value (H301 cells) of the same molecule?
Answer: inactive

Question: What about the “growth effect of steroid hormone” value (T47D cells) of the same molecule?
Answer: promoted growth but only at supraphysiological concentrations

Question: What about the “growth effect of steroid hormone” value (GH4C1 cells) of the same molecule?
Answer: ineffective

Question: Which “growth induced by chelator” value (LNCaP cells; CAPM without deferoxamine plus […] Fe (III), 0.5 μM chelator) does the source give for `CC(=O)N(O)CCCCCNC(=O)CCC(=O)N(O)CCCCCNC(=O)CCC(=O)N(O)CCCCCN` [deferoxamine, deferoxamine mesylate] here?
Answer: 3.5 CPD

Question: For `CC(=O)[C@H]1CC[C@H]2[C@@H]3CCC4=CC(=O)CC[C@]4(C)[C@H]3CC[C@]12C` [progesterone, Progesterone], which Kd [7] is on record?
Answer: 3.29 nM

Question: What about the “^3H-progesterone concentration at one-half saturation” value [8] of the same molecule?
Answer: 0.5 to 1 nM

Question: What about the “labeled progesterone concentration saturating specific binding” value [8] of the same molecule?
Answer: ≥ 5 nM

Question: What about the Kd ([8]; read-out: Kd of ^3H-progesterone binding, Scatchard analysis, whole cells) of the same molecule?
Answer: 1.02 nM

Question: What about the “CA-PS-Pool I Ka” value [1] of the same molecule?
Answer: 5.9e+08 M⁻¹

Question: And the Kd [1]?
Answer: 1.7 nM

Question: What about the “CA-PS-Pool II Ka” value (CA-PS-Pool II) of the same molecule?
Answer: 117000 M⁻¹

Question: What about the Kd (CA-PS-Pool II) of the same molecule?
Answer: 7890 nM

Question: What about the “CA-PS-Pool II Ka” value [2] of the same molecule?
Answer: 140000 M⁻¹

Question: What about the Kd [2] of the same molecule?
Answer: 6900 nM

Question: And the “growth effect of steroid hormone” value (H301 cells)?
Answer: inactive

Question: What about the “growth effect of steroid hormone” value (T47D cells) of the same molecule?
Answer: completely ineffective

Question: And the “growth effect of steroid hormone” value (GH4C1 cells)?
Answer: had no effect on GH4C1 growth

Question: What about the “concentration causing significant (p<0.05) growth” value (MTW9/PL2 cells) of the same molecule?
Answer: ≥ 100 nM

Question: With `CC/C(=C(\c1ccccc1)c1ccc(OCCN(C)C)cc1)c1ccccc1` [tamoxifen, Tamoxifen Citrate] as the molecule, how does the “estrogen reversal of the tamoxifen inhibition” value (T47D cells; 1.0×10^−7 M tamoxifen, serum-free defined medium) read?
Answer: estrogens completely reverse the effect

Question: And the cytotoxicity (T47D cells; concentrations above 1.0×10^−7 M, serum-free DDM-2MF)?
Answer: Higher concentrations were cytotoxic

Question: And the “concentration that completely inhibited (arrested) growth” value (T47D cells; serum-free DDM-2MF without any source of estrogens)?
Answer: 100 nM

Question: Which “reversal of the CDE-serum inhibition (substitute for E2)” value (from here on “reversal of the CDE-serum inhibition”) [9] does the source give for “EGF: epidermal growth factor from mouse submaxillary gland (NSYPGCPSSYDGYCLNGGVCMHIESLDSYTCNCVIGYSGDRCQTRDLRWWELR; not fully specified; Epidermal growth factor; UniProt P01132 977-1029, looked up)” here?
Answer: did not reverse the effects of the serum-borne inhibitor

Question: With IGF-I: insulin-like growth factor I as the molecule, how does the “reversal of the CDE-serum inhibition” value [9] read?
Answer: did not reverse the serum inhibition

Question: Which “reversal of the CDE-serum inhibition” value [9] does the source give for IGF-II: insulin-like growth factor II here?
Answer: did not reverse the inhibitory effects of 10 to 50% (v/v) CDE serum

Question: With “TGFα: transforming growth factor α, EGF analogue” as the molecule, how does the “reversal of the CDE-serum inhibition” value [9] read?
Answer: did not reverse the effects of the serum-borne inhibitor

Question: Which “substitution for the estrogen reversible inhibitor” value [10] does the source give for TGFβ1: transforming growth factor β1 here?
Answer: did not substitute for the estrogen reversible inhibitor(s) in CDE serum

Question: And the “cell numbers per dish with TGFβ1 (350,000 without)” value (MTW9/PL2 cells; D-MEM/F-12 with […] (v/v) CDE-horse serum)?
Answer: 100,000 per dish

Question: What about the “decrease in growth rate” value (MTW9/PL2 cells; […] (v/v) CDE-horse serum) of the same molecule?
Answer: ≤ 25%

Question: And the inhibition of growth (MTW9/PL2 cells; […] (v/v) CDE-horse serum)?
Answer: 1.5 CPD

Question: And the “estrogen reversal of the inhibition” value (MTW9/PL2 cells; […] (v/v) CDE-horse serum ± E2)?
Answer: no estrogen reversal of the TGFβ1 inhibition

Question: And the “estrogen reversal of the inhibition” value (MCF-7K cells; […] (v/v) CDE-horse serum ± E2)?
Answer: no TGFβ1 related estrogenic effect

Question: What about the “cell numbers per dish with TGFβ1 (350,000 without)” value (MCF-7K cells; […] (v/v) CDE-horse serum, 50 ng/mL) of the same molecule?
Answer: 200,000 per dish

Question: For insulin: bovine insulin, which “reversal of the CDE-serum inhibition” value [9] is on record?
Answer: did not reverse the inhibition caused by 50% (v/v) CDE serum
